Assay results: patent US20140018432A1, “ELECTROCHEMICAL GENERATION OF CHLORINATED UREA DERIVATIVES” (Hercules Incorporated, priority 2012, published 2014)

Experiments:
[1] = Stability of aqueous solutions of the chlorinated ureas; format: physicochemical
microorganisms = assay: Microbiological studies (biocidal activity); details: no details given

Structure (SMILES)	stability compared with N-chlorourea [1]	stability of solution ([1]; basic solutions (pH 12 and higher, flow cell without membrane))	stability of solution ([1]; neutral or acidic environment)	biocidal activity (microorganisms)
CNC(=O)N(C)Cl [N-chloro-N,N′-dimethylurea]	significantly more stable than N-chlorourea	not stable	significantly more stable	potent biocides
NC(=O)NCl [N-chlorourea]				potent biocides
